Reference: patent publication US7098340B2, “Benzyl sulfonamide derivatives” (Warner Lambert Company LLC, priority 2003, dated 2006)

Biological target: T1, androgen receptor (Homo sapiens, UniProt P10275)
T1 sequence (P10275 1-920 Q868H): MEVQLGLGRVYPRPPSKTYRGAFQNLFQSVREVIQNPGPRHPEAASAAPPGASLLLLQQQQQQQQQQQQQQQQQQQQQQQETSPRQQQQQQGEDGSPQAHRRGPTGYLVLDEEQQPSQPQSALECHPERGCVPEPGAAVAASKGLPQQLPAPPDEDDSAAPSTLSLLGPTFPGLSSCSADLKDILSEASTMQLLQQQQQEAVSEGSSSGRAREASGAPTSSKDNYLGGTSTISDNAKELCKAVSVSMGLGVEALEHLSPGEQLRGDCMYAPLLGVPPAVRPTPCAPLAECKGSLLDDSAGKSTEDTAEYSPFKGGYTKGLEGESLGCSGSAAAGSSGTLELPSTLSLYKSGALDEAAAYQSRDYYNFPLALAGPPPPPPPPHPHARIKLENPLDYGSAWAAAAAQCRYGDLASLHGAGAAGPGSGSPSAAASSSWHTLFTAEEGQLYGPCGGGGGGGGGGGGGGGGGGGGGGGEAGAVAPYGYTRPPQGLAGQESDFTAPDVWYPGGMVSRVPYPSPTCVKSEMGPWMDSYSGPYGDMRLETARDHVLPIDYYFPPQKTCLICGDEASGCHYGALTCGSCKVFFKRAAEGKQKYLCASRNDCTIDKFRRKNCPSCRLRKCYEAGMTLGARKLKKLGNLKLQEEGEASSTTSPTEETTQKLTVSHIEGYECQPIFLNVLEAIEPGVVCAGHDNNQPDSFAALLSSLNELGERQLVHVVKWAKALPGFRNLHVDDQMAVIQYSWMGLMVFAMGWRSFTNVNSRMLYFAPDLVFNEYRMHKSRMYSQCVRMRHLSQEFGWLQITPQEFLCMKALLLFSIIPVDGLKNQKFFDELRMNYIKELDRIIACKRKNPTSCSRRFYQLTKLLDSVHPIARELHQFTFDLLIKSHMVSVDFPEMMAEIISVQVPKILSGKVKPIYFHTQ
Assay: AR Antagonist Cell Assay (MMTV-luciferase reporter, DHT-stimulated)
Assay type: cell-based
Conditions: MDA-MB453-MMTV clone 54-19 cells; antagonism of 100 pM DHT, 17 hr, luciferase readout
Outline: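 MDA-MB453 cells stably carrying MMTV-ARE-firefly luciferase, in 1% charcoal-treated serum, preincubated 30 min with compound (10 uM or 1 uM) then stimulated with 100 pM DHT for 17 h at 37° C. Luminescence read; result as % inhibition of DHT fold induction.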

SMILES | IC50
O=c1cc(C(F)(F)F)c2cc(Cc3ccc(S(=O)(=O)Nc4ccc(F)cc4)cc3)ccc2o1 [Example 117, N-(4-Fluorophenyl)-4-(2-oxo-4-trifluoromethyl-2H-chromen-6-ylmethyl)benzenesulfonamide] | 3.46 µM
C#Cc1ccc(NS(=O)(=O)c2ccc(Cc3ccc4oc(=O)cc(C(F)(F)F)c4c3)cc2)cc1 [Example 118, N-(4-Ethynylphenyl)-4-(2-oxo-4-trifluoromethyl-2H-chromen-6-ylmethyl)-benzenesulfonamide] | 5.47 µM
CCc1ccc(NS(=O)(=O)c2ccc(Cc3ccc4oc(=O)cc(C(F)(F)F)c4c3)cc2)cc1 [Example 120, N-(4-Ethylphenyl)-4-(2-oxo-4-trifluoromethyl-2H-chromen-6-ylmethyl)-benzenesulfonamide] | 1.32 µM
O=c1cc(C(F)(F)F)c2cc(Cc3ccc(S(=O)(=O)Nc4cccc(CO)c4)cc3)ccc2o1 [Example 122, N-(3-Hydroxymethylphenyl)-4-(2-oxo-4-trifluoromethyl-2H-chromen-6-ylmethyl)-benzenesulfonamide] | 1.83 µM
O=c1cc(C(F)(F)F)c2cc(Cc3ccc(S(=O)(=O)Nc4ccc(CO)cc4)cc3)ccc2o1 [Example 124, N-(4-Hydroxymethylphenyl)-4-(2-oxo-4-trifluoromethyl-2H-chromen-6-ylmethyl)-benzenesulfonamide] | 2.31 µM
O=c1cc(C(F)(F)F)c2cc(Cc3ccc(S(=O)(=O)Nc4ccc5ncccc5c4)cc3)ccc2o1 [Example 125, 4-(2-Oxo-4-trifluoromethyl-2H-chromen-6-ylmethyl)-N-quinolin-6-ylbenzenesulfonamide] | > 10 µM
N#CCc1ccc(NS(=O)(=O)c2ccc(Cc3ccc4oc(=O)cc(C(F)(F)F)c4c3)cc2)cc1 [Example 126, N-(4-Cyanomethylphenyl)-4-(2-oxo-4-trifluoromethyl-2H-chromen-6-ylmethyl)-benzenesulfonamide] | 1.89 µM
O=c1cc(C(F)(F)F)c2cc(Cc3ccc(S(=O)(=O)Nc4ccc5c(c4)CCC5)cc3)ccc2o1 [Example 127, N-Indan-5-yl-4-(2-oxo-4-trifluoromethyl-2H-chromen-6-ylmethyl)benzenesulfonamide] | 2.77 µM
O=c1cc(C(F)(F)F)c2cc(Cc3ccc(S(=O)(=O)Nc4cccc5c4CCC5)cc3)ccc2o1 [Example 128, N-Indan-4-yl-4-(2-oxo-4-trifluoromethyl-2H-chromen-6-ylmethyl)benzenesulfonamide] | 4.77 µM
CC(=O)c1cccc(NS(=O)(=O)c2ccc(Cc3ccc4oc(=O)cc(C(F)(F)F)c4c3)cc2)c1 [Example 129, N-(3-Acetylphenyl)-4-(2-oxo-4-trifluoromethyl-2H-chromen-6-ylmethyl)benzenesuifonamide] | 2.16 µM
CC(C)c1ccc(NS(=O)(=O)c2ccc(Cc3ccc4oc(=O)cc(C(F)(F)F)c4c3)cc2)cc1 [Example 130, N-(4-Isopropylphenyl)-4-(2-oxo-4-trifluoromethyl-2H-chromen-6-ylmethyl)-benzenesulfonamide] | 3.91 µM
Cc1ccc(-c2ccccc2)cc1NS(=O)(=O)c1ccc(Cc2ccc3oc(=O)cc(C(F)(F)F)c3c2)cc1 [Example 132, N-(4-Methylbiphenyl-3-yl)-4-(2-oxo-4-trifluoromethyl-2H-chromen-6-ylmethyl)-benzenesulfonamide] | 8.13 µM
CC(O)c1cccc(NS(=O)(=O)c2ccc(Cc3ccc4oc(=O)cc(C(F)(F)F)c4c3)cc2)c1 (centres unmarked) [Example 133, N-[3-(1-Hydroxyethyl)phenyl]-4-(2-oxo-4-trifluoromethyl-2H-chromen-6-ylmethyl)-benzenesulfonamide] | 6.91 µM
O=c1cc(C(F)(F)F)c2cc(Cc3ccc(S(=O)(=O)Nc4ccc(Cl)cc4)cc3)ccc2o1 [Example 135, N-(4-Chlorophenyl)-4-(2-oxo-4-trifluoromethyl-2H-chromen-6-ylmethyl)benzenesulfonamide] | 2.01 µM
O=c1cc(C(F)(F)F)c2cc(Cc3ccc(S(=O)(=O)Nc4cc5ccccc5cn4)cc3)ccc2o1 [Example 136, N-Isoquinolin-3-yl-4-(2-oxo-4-trifluoromethyl-2H-chromen-6-ylmethyl)benzenesulfonamide] | > 10 µM
O=c1cc(C(F)(F)F)c2cc(Cc3ccc(S(=O)(=O)Nc4cccc5cccnc45)cc3)ccc2o1 [Example 137, 4-(2-Oxo-4-trifluoromethyl-2H-chromen-6-ylmethyl)-N-quinolin-8-ylbenzenesulfonamide] | 7.08 µM
CSc1n[nH]c(NS(=O)(=O)c2ccc(Cc3ccc4oc(=O)cc(C(F)(F)F)c4c3)cc2)c1C#N [Example 138, N-(4-Cyano-5-methylsulfanyl-2H-pyrazol-3-yl)-4-(2-oxo-4-trifluoromethyl-2H-chromen-6-ylmethyl)benzenesulfonamide] | 1.9 µM
Cc1ccc2cc(NS(=O)(=O)c3ccc(Cc4ccc5oc(=O)cc(C(F)(F)F)c5c4)cc3)ccc2n1 [Example 139, N-(2-Methylquinolin-6-yl)-4-(2-oxo-4-trifluoromethyl-2H-chromen-6-ylmethyl)-benzenesulfonamide] | 2.03 µM

Further lines, results first:

IC50 | SMILES
3.42 µM | CCc1cccc(NS(=O)(=O)c2ccc(Cc3ccc4oc(=O)cc(C(F)(F)F)c4c3)cc2)c1 [Example 119, N-(3-Ethylphenyl)-4-(2-oxo-4-trifluoromethyl-2H-chromen-6-ylmethyl)-benzenesulfonamide]
3.17 µM | O=c1cc(C(F)(F)F)c2cc(Cc3ccc(S(=O)(=O)Nc4ccccc4CO)cc3)ccc2o1 [Example 121, N-(2-Hydroxymethylphenyl)-4-(2-oxo-4-trifluoromethyl-2H-chromen-6-ylmethyl)-benzenesulfonamide]
4.08 µM | COc1ccccc1NS(=O)(=O)c1ccc(Cc2ccc3oc(=O)cc(C(F)(F)F)c3c2)cc1 [Example 123, N-(2-Methoxyphenyl)-4-(2-oxo-4-trifluoromethyl-2H-chromen-6-ylmethyl)-benzenesulfonamide]
2.4 µM | O=c1cc(C(F)(F)F)c2cc(Cc3ccc(S(=O)(=O)Nc4ccc5c(c4)OCO5)cc3)ccc2o1 [Example 131, N-Benzo[1,3]dioxol-5-yl-4-(2-oxo-4-trifluoromethyl-2H-chromen-6-ylmethyl)-benzenesulfonamide]
1.24 µM | CSc1cccc(NS(=O)(=O)c2ccc(Cc3ccc4oc(=O)cc(C(F)(F)F)c4c3)cc2)c1 [Example 134, N-(3-Methylsulfanylphenyl)-4-(2-oxo-4-trifluoromethyl-2H-chromen-6-ylmethyl)-benzenesulfonamide]
7.3 µM | COc1ccc(OC)c(NS(=O)(=O)c2ccc(Cc3ccc4oc(=O)cc(C(F)(F)F)c4c3)cc2)c1 [Example 140, N-(2,5-Dimethoxyphenyl)-4-(2-oxo-4-trifluoromethyl-2H-chromen-6-ylmethyl)-benzenesulfonamide]
3.24 µM | COc1cc(NS(=O)(=O)c2ccc(Cc3ccc4oc(=O)cc(C(F)(F)F)c4c3)cc2)cc(OC)c1 [Example 141, N-(3,5-Dimethoxyphenyl)-4-(2-oxo-4-trifluoromethyl-2H-chromen-6-ylmethyl)-benzenesulfonamide]
~10 µM | CC(C)Oc1cccc(NS(=O)(=O)c2ccc(Cc3ccc4oc(=O)cc(C(F)(F)F)c4c3)cc2)c1 [Example 142, N-(3-Isopropoxyphenyl)-4-(2-oxo-4-trifluoromethyl-2H-chromen-6-ylmethyl)-benzenesulfonamide]
